Laboratory results taken from PubChem BioAssay AID1259407 (Chemical Carcinogenesis Research Information System (CCRIS), 2018).
Activity calls are given as the source filed them. No rule for the calls is given here.

Test system: CCRIS mutagenicity, Ames/micronucleus/aberration tests
Experiment: CCRIS mutagenicity studies
[1] = Test System: AMES SALMONELLA TYPHIMURIUM, Strain/Indicator: TA98, Metabolic Activation: RAT, LIVER, S-9, AROCLOR 1254, Method: STANDARD PLATE
[2] = Test System: AMES SALMONELLA TYPHIMURIUM, Strain/Indicator: TA1535, Metabolic Activation: RAT, LIVER, S-9, AROCLOR 1254, Method: STANDARD PLATE
[3] = Test System: AMES SALMONELLA TYPHIMURIUM, Strain/Indicator: TA100, Metabolic Activation: NONE, Method: STANDARD PLATE
[4] = Test System: AMES SALMONELLA TYPHIMURIUM, Strain/Indicator: TA1537, Metabolic Activation: NONE, Method: STANDARD PLATE
[5] = Test System: AMES SALMONELLA TYPHIMURIUM, Strain/Indicator: TA100, Metabolic Activation: RAT, S-9, AROCLOR, Method: STANDARD PLATE

In the case of c1ccc2ncccc2c1, the mutagenic call (End Point: IN VITRO CHROMOSOMAL ABERRATIONS, Test System: CHL CELLS, Metabolic Activation: NONE) is reported as “inactive; negative”, the mutagenic call (End Point: IN VITRO CHROMOSOMAL ABERRATIONS, Test System: CHL CELLS, Metabolic Activation: RAT, LIVER, S-9, SODIUM PHENOBARBITAL AND 5,6-BENZOFLAVONE) is reported as “active; positive (structural changes)” and the mutagenic call (End Point: IN VIVO MICRONUCLEUS, Test System: HEPATOCYTES, Species: RAT, Strain/Sex: FISHER 344 OR SD/MALE, Route: ORAL OR IP) is reported as “active; positive”. The mutagenic call (End Point: IN VIVO MICRONUCLEUS, Test System: PERIPHERAL BLOOD RETICULOCYTES, Species: RAT, Strain/Sex: FISHER 344 OR SD/MALE, Route: ORAL OR IP) was “inactive; negative; significant increase at 150 mg/kg”, the mutagenic call (End Point: In vitro chromosomal aberrations, Test System: Chinese hamster lung fibroblast cells (CHL/IU), Metabolic Activation: Rat, liver, S-9) was “active; positive (information derived from figure)” and the mutagenic call (End Point: In vitro micronucleus, Test System: Chinese hamster lung fibroblast cells (CHL/IU), Metabolic Activation: Rat, Liver, S-9) was “active; positive, cytotoxic at 0.1 mg/ml (information derived from a figure)”. For the same molecule, the mutagenic call (End Point: In vitro micronucleus, Test System: Chinese hamster lung fibroblast cells (CHL/IU), Metabolic Activation: Rat, liver, S-9) was “active; positive (information derived from a figure)”, the mutagenic call (End Point: In vivo micronucleus, Test System: Micronucleated hepatocytes, Species: Rat, Strain/Sex: F344/Male, Route: Oral) was “active; positive (p<0.05)” and the mutagenic call (Test System: AMES SALMONELLA TYPHIMURIUM, Strain/Indicator: TA98, Metabolic Activation: NONE, Method: PREINCUBATION) was “inactive; negative”. The mutagenic call (Test System: AMES SALMONELLA TYPHIMURIUM, Strain/Indicator: TA98, Metabolic Activation: RAT LIVER S-9, PHENOBARBITAL AND BETA-NAPHTHOFLAVONE, Method: PREINCUBATION) was “active; positive”, the mutagenic call (Test System: AMES SALMONELLA TYPHIMURIUM, Strain/Indicator: TA98, Metabolic Activation: RAT, LIVER, S-9, (5%, 10% OR 20%) AROCLOR 1254, Method: STANDARD PLATE) was “active; positive” and the mutagenic call [1] was “active; positive”. The mutagenic call (Test System: AMES SALMONELLA TYPHIMURIUM, Strain/Indicator: TA98, Metabolic Activation: RAT, LIVER, S-9, KC500 OR PHENOBARBITAL, Method: LIQUID SUSPENSION) was “active; positive”, the mutagenic call (Test System: AMES SALMONELLA TYPHIMURIUM, Strain/Indicator: TA98, Metabolic Activation: RAT, LIVER, S-9, PCB, Method: PREINCUBATION) was “active; positive” and the mutagenic call (Test System: AMES SALMONELLA TYPHIMURIUM, Strain/Indicator: TA98, Metabolic Activation: RAT, LIVER, S-9, Method: PREINCUBATION) was “active; positive”. The mutagenic call (Test System: AMES SALMONELLA TYPHIMURIUM, Strain/Indicator: TA100, Metabolic Activation: NONE, Method: PREINCUBATION) was “inactive; negative”, the mutagenic call (Test System: AMES SALMONELLA TYPHIMURIUM, Strain/Indicator: TA100, Metabolic Activation: RAT LIVER S-9, PHENOBARBITAL AND 5,6-BENZOFLAVONE, Method: PREINCUBATION) was “active; positive” and the mutagenic call (Test System: AMES SALMONELLA TYPHIMURIUM, Strain/Indicator: TA100, Metabolic Activation: RAT LIVER S-9, PHENOBARBITAL AND BETA-NAPHTHOFLAVONE, Method: PREINCUBATION) was “active; positive”. The mutagenic call (Test System: AMES SALMONELLA TYPHIMURIUM, Strain/Indicator: TA100, Metabolic Activation: RAT, LIVER, S-9 (5%, 10% OR 20%) AROCLOR 1254, Method: STANDARD PLATE) was “active; positive”, the mutagenic call (Test System: AMES SALMONELLA TYPHIMURIUM, Strain/Indicator: TA100, Metabolic Activation: RAT, LIVER, S-9, (5%, 10% OR 20%,) AROCLOR 1254, Method: STANDARD PLATE) was “active; positive” and the mutagenic call (Test System: AMES SALMONELLA TYPHIMURIUM, Strain/Indicator: TA100, Metabolic Activation: RAT, LIVER, S-9, AROCLOR 1254, Method: PREINCUBATION) was “active; positive”. For the same molecule, the mutagenic call (Test System: AMES SALMONELLA TYPHIMURIUM, Strain/Indicator: TA100, Metabolic Activation: RAT, LIVER, S-9, KC500 OR PHENOBARBITAL, Method: LIQUID SUSPENSION) was “active; positive”, the mutagenic call (Test System: AMES SALMONELLA TYPHIMURIUM, Strain/Indicator: TA100, Metabolic Activation: RAT, LIVER, S-9, PCB, Method: STANDARD PLATE) was “active; positive” and the mutagenic call (Test System: AMES SALMONELLA TYPHIMURIUM, Strain/Indicator: TA100, Metabolic Activation: RAT, LIVER, S-9, PHENOBARBITAL AND 5,6-BENZOFLAVONE, Method: PREINCUBATION) was “active; positive”. For the same molecule, the mutagenic call (Test System: AMES SALMONELLA TYPHIMURIUM, Strain/Indicator: TA100, Metabolic Activation: RAT, LIVER, S-9, PHENOBARBITAL AND 5,6-NAPHTHOFLAVONE, Method: PREINCUBATION) was “active; positive”, the mutagenic call (Test System: AMES SALMONELLA TYPHIMURIUM, Strain/Indicator: TA100, Metabolic Activation: RAT, LIVER, S-9, Method: PREINCUBATION) was “active; positive” and the mutagenic call (Test System: AMES SALMONELLA TYPHIMURIUM, Strain/Indicator: TA100, Metabolic Activation: S-9, Method: PREINCUBATION) was “active; positive”. The mutagenic call (Test System: AMES SALMONELLA TYPHIMURIUM, Strain/Indicator: TA1535, Metabolic Activation: NONE, Method: PREINCUBATION) was “inactive; negative”, the mutagenic call [2] was “inactive; negative” and the mutagenic call (Test System: AMES SALMONELLA TYPHIMURIUM, Strain/Indicator: TA1537, Metabolic Activation: NONE, Method: PREINCUBATION) was “inactive; negative”. For the same molecule, the mutagenic call (Test System: E. COLI, Strain/Indicator: WP2UVRA, Metabolic Activation: NONE, Method: PREINCUBATION) was “inactive; negative”, the mutagenic call (Test System: E.COLI, Strain/Indicator: WP2UVRA, Metabolic Activation: RAT LIVER S-9, PHENOBARBITAL AND BETA-NAPHTHOFLAVONE, Method: PREINCUBATION) was “active; positive” and the mutagenic call (Test System: UDS RODENT HEPATOCYTES, Strain/Indicator: THY INCORP (NON-S-PHASE), Metabolic Activation: IN VIVO, Method: AUTORADIOGRAPHY) was “inactive; negative”. For the same molecule, the mutagenic call (Test System: UDS RODENT HEPATOCYTES, Strain/Indicator: THY INCORP (NON-S-PHASE), Metabolic Activation: NONE, Method: AUTORADIOGRAPHY) was “active; positive”.

For CCc1cccc2c3c([nH]c12)C(CC)(CC(=O)O)OCC3 (centres undefined), the mutagenic call (Test System: AMES SALMONELLA TYPHIMURIUM, Strain/Indicator: TA98, Metabolic Activation: NONE, Method: STANDARD PLATE) was “inactive; negative”, the mutagenic call [1] was “inactive; negative” and the mutagenic call [3] was “inactive; negative”. For the same molecule, the mutagenic call (Test System: AMES SALMONELLA TYPHIMURIUM, Strain/Indicator: TA100, Metabolic Activation: RAT, LIVER, S-9, AROCLOR 1254, Method: STANDARD PLATE) was “inactive; negative”, the mutagenic call (Test System: AMES SALMONELLA TYPHIMURIUM, Strain/Indicator: TA1535, Metabolic Activation: NONE, Method: STANDARD PLATE) was “inactive; negative” and the mutagenic call [2] was “inactive; negative”. For the same molecule, the mutagenic call [4] was “inactive; negative”, the mutagenic call (Test System: AMES SALMONELLA TYPHIMURIUM, Strain/Indicator: TA1537, Metabolic Activation: RAT, LIVER, S-9, AROCLOR 1254, Method: STANDARD PLATE) was “inactive; negative” and the mutagenic call (Test System: E. COLI, Strain/Indicator: WP2 UVRA, Metabolic Activation: NONE, Method: STANDARD PLATE) was “inactive; negative”. The mutagenic call (Test System: E. COLI, Strain/Indicator: WP2 UVRA, Metabolic Activation: RAT, LIVER, S-9, AROCLOR 1254, Method: STANDARD PLATE) was “inactive; negative”.

N#Cc1ccc(C(=O)ON(OCc2ccccc2)C(=O)c2ccccc2)cc1 was tested, and the mutagenic call [3] was “active; positive” and the mutagenic call [5] was “active; positive”.

For CCCCOc1cc(C)ccc1C(=O)NOC(C)=O, the mutagenic call [3] was “active; positive” and the mutagenic call [5] was “active; positive”.

For CN(C)CCNC(=O)c1ccc2nc3ccccc3c(N)c2c1, the mutagenic call [4] was “inactive; negative”.
